Experimental data as given in patent publication US20220397566A1, “GAMMA-SECRETASE STABILIZING COMPOUND SCREENING ASSAY” (VIB VZW, priority 2019, published 2022).

What was measured:
Format in all cases: cell-based, mouse
[1] = test system: LAMP1-positive organelles; experiment: Size area of LAMP1-positive organelles per cell; conditions: 1 μM, 16 hrs
Description: FIG. 1. DAPT relocates PSEN1/g-secretase to late endosomes. (A) PSEN1 and PSEN2 double knock-out (dKO) MEFs stably expressing GFP-PSEN1 or GFP-PSEN2 were treated for 16 h with 1 μM of DAPT or DMSO and immunostained for GFP (green) and LAMP1 antibodies (red). (B) Quantification of (A) using Mander's coefficient. (C) Ratio of GFP intensity in LAMP1-positive structures over total GFP intensity in the cell, normalized to DMSO-treated cells (control=Ctrl). (D) Quantification of size area of LAMP1-positive organelles per cell showing no significant differences between DMSO and DAPT-treated cells. (E) PSEN1, PSEN2 and NCT triple KO MEFs stably rescued with NCT-SNAP and GFP-PSEN1 were treated for 16 h with 1 μM of DAPT or DMSO (Ctrl). […] All graphs show the median with 95% confidence interval (n=3, ˜20 cells per experiments; p-values are calculated using Mann-Whitney test; ns means non-significant).
Cells were plated on glass coverslips, transfected 24 h later and processed for indirect immunolabeling the next day (Sannerud et al 2011 Proc Natl Acad Sci USA 108). […] ImageJ software with the plugin JACoP (Bolte and Cordelieres 2006 J Microsc 224) was used for signal overlap quantification (Mander's coefficient). Images were acquired with identical settings and regions of interest (ROI) covering whole cells were used for quantification.

g-secretase subunits = biological target: T1, g-secretase subunits (Homo sapiens, UniProt P49768); experiment: Expression of g-secretase subunits (Western blot); conditions: 1 μM DAPT; data not shown
T1 construct: expressed in transfected cells
Description: First, in the PSEN1 KO mouse embryonic fibroblasts (MEFs) rescued with EGFP-PSEN1 (see Example 1) the expression of the g-secretase subunits was tested and found not affected by administering any of the 12 compounds, including DAPT that was used as positive control (data not shown).
Protein concentrations were determined by the Bio-Rad DC protein assay (Bio-Rad). Samples were separated by SDS-PAGE (4-12% Bis-Tris NuPAGE gels in MES running buffer (ThermoFisher Scientific) and transferred onto nitrocellulose membranes (ThermoFisher Scientific). After blocking in 5% non-fat milk, membranes were incubated with primary antibody (4° C., overnight) followed by washing and incubation with horseradish peroxidase (HRP)-conjugated secondary antibodies (1 h, room temperature). After final washing, immunodetection was done using enhanced chemiluminescence (Western Lightning-Plus ECL, PerkinElmer), and immunoreactive protein bands were digitally captured and quantified on a Fuji MiniLAS 3000 imager (Fuji, Dusseldorf, Germany) using Aida Image Analyzer software (Raytest, Germany). Data are represented as mean±SEM of at least three independent experiments.

NCT = experiment: Cell surface biotinylation internalization assay, NCT; conditions: DAPT 1 μM
Description: All reagents, except otherwise stated, were kept on ice. Cells (450.000 cells for 1 h kinetic and 300.000 cells for 16 h) were plated on 6-cm dishes. 48 h after plating, cells were placed on ice, washed in PBS (pH 8) and next incubated in PBS (pH 8) supplemented with 0.25 mg/ml sulfo-NHS-SS-Biotin (Pierce) (10 min at 4° C.). Excess of biotin was washed out with PBS and cells were incubated in quench buffer (0.5% BSA, 100 mM Glycine in PBS) for 15 min at 4° C. Cells were then washed with PBS and incubated at 37° C. in complete pre-warmed medium (with or without DAPT 1 μM) for the appropriate time or kept at 4° C. as a control. Endocytosis was quickly stopped by placing the dishes back on ice and washing the cells with ice-cold PBS. Remaining biotin at the cell surface was cleaved off by incubating the cells twice in PBS containing 100 mM 2-sodium-2-mercaptoethanesulfonate (Sigma) as a reducing agent (15 min at 4° C.). […] Total protein was measured and biotinylated proteins were pulled down from equal amounts of extracts using streptavidin Sepharose beads (Pierce) (4° C., overnight on a rotation wheel). […] To evaluate the internalized pool for each protein to total cell surface, the (R37-R0)/NR*100 ratio for each time point were quantified. For the 16 h time point, the R37/NR*100 were quantified for each condition. […]

[2] = biological target: T2, PSEN1/g-secretase complex (Homo sapiens, UniProt P49768); experiment: Relocation of GFP-PSEN1/g-secretase to LAMP1-positive late endosomes (confocal immunofluorescence)
T2 construct: expressed in transfected cells

## C[C@H](NC(=O)Cc1cc(F)cc(F)c1)C(=O)N[C@H](C(=O)OC(C)(C)C)c1ccccc1 [DAPT, N—[N-(3,5-difluorophenacetyl)-L-alanyl]-S-phenylglycine t-butyl ester]
[1]
  total size area of LAMP1-positive organelles: no measurable effect
g-secretase subunits
  steady state of PSEN1 or PSEN2 protein levels: no measurable effect
NCT; 5, 10, 30 and 60 min
  internalized NCT (internalization kinetics): did not reveal significant differences in internalized NCT
NCT; 16 h time point
  amount of biotinylated NCT pulled down: doubling of the amount of biotinylated NCT
[2]; PSEN1 KO MEFs rescued with GFP-PSEN1, 1 μM, 16 h
  co-distribution of EGFP-PSEN1 with anti-LBPA immunoreactivity (late endosomes): even more strongly co-distributed with anti-LBPA immunoreactivity
[2]; single PSEN1 KO MEFs stably transduced with EGFP-PSEN1, data not shown
  relocation of EGFP-PSEN1 to LAMP1-positive organelles: Identical observations
[2]; triple KO MEFs rescued with EGFP-PSEN1 and NCT-SNAP, 1 μM, 16 h
  co-accumulation of EGFP-PSEN1 and NCT-SNAP in LAMP1-positive organelles: co-accumulate in LAMP1-positive organelles
